Consider one compound from patent publication US20150322051A1, “Macrocyclic picolinamides as fungicides” (Dow AgroSciences LLC, priority 2014, published 2015).

What all share (format): in vivo
The test system of assay [1] is Rhyncosporium secalis (RHYNSE). Briefly: Barley scald (RHYNSE) whole-plant fungicidal test. Conditions: 1 Day Protectant. The procedure: (§1) All fungicides were evaluated using the aforementioned method for their activity vs. all target diseases, unless stated otherwise. Wheat leaf blotch and brown rust activity were also evaluated using track spray applications, in which case the fungicides were formulated as EC formulations, containing 0.1% Trycol 5941 in the spray solutions. Wheat plants (variety Yuma) were grown from seed in a greenhouse in 50% mineral soil/50% soil-less Metro mix until the first leaf was fully emerged, with 7-10 seedlings per pot. These plants were inoculated with an aqueous spore suspension of Septoria tritici either prior to or after fungicide treatments. After inoculation the plants were kept in 100% relative humidity (one day in a dark dew chamber followed by two to three days in a lighted dew chamber at 20° C.) to permit spores to germinate and infect the leaf. The plants were then transferred to a greenhouse set at 20° C. for disease to develop. When disease symptoms were fully expressed on the 1st leaves of untreated plants, infection levels were assessed on a scale of 0 to 100 percent disease severity. Percent disease control was calculated using the ratio of disease severity on treated plants relative to untreated plants. Barley seedlings (variety Harrington) were propagated in soil-less Metro mix, with each pot having 8 to 12 plants, and used in the test when first leaf was fully emerged. […]

The test system of assay [2] is Uncinula necator (UNCINE). The experiment in a line: Grape powdery mildew (UNCINE) whole-plant fungicidal test. Conditions: 1 Day Protectant.
The subject of assay [3] is Venturia inaequalis (VENTIN). The experiment in a line: Apple scab (VENTIN) whole-plant fungicidal test. The following applies: 1 Day Protectant.
Assay [4] relates to Erysiphe cichoracearum (ERYSCI). The experiment in a line: Powdery mildew of cucumber (ERYSCI) whole-plant fungicidal test. The following applies: 1 Day Protectant.
In assay [5] the test system is Puccinia triticina; synonym: Puccinia recondita f. sp. tritici (PUCCRT). The experiment in a line: Wheat brown rust (PUCCRT) whole-plant fungicidal test. The following applies: topical, low volume (track spray) application, 121.5 g/H.
For assay [6], the system named is Glomerella lagenarium; anamorph: Colletotrichum lagenarium (COLLLA). The experiment in a line: Cucumber anthracnose (COLLLA) whole-plant fungicidal test. Conditions: 1 Day Protectant. Here is the method:
as §1, with “Cucumber” for “Barley”, “Bush Pickle)” for “Harrington)”, “one plant,” for “8 to 12 plants,”, “12 to 14 days old.” for “first leaf was fully emerged.”

For assay [7], the system named is Blumeria graminis f. sp. hordei; synonym: Erysiphe graminis f. sp. hordei (ERYSGH). The experiment in a line: Barley powdery mildew (ERYSGH) whole-plant fungicidal test. The following applies: 1 Day Protectant. The procedure:
as §1

Where two headings read alike, the source gives them in different places.

For the compound `CCCC[C@@H]1[C@@H](Cc2ccc(C(F)(F)F)cc2)CCC[C@H](NC(=O)c2nccc(OC)c2OCOC(C)=O)C(=O)O[C@H]1C` [Compound 3], the “Disease Control at 100 ppm RHYNSE 1DP” value in assay [1] was “B (≦70)”. In addition, the “Disease Control at 100 ppm UNCINE 1DP” value in assay [2] is reported as “A (>70)”. Further, the “Disease Control at 100 ppm VENTIN 1DP” value in assay [3] is “A (>70)”. In addition, the “Disease Control at 100 ppm ERYSCI 1DP” value in assay [4] was “A (>70)”. The pest or weed control at 121.5 g/ha was above 70% in assay [5] (24 h, 1 Day Protectant, read-out: Low Volume activity at 121.5 g/H PUCCRT 1DP (% disease control rating)) and below 70% in assay [5] (72 h, 3 Day Curative, read-out: Low Volume activity at 121.5 g/H PUCCRT 3DC (% disease control rating)). Moreover, in assay [6], the “Disease Control at 100 ppm COLLLA 1DP” value is given as “A (>70)”. Moreover, the “Disease Control at 100 ppm ERYSGH 1DP” value in assay [7] is given as “A (>70)”.
